The values that follow come from patent US20180250403A1, “CONJUGATES” (AGENCY FOR SCIENCE, TECHNOLOGY AND RESEARCH, priority 2015, published 2018).

This data set relates to B16F10 cells. In words: Cell proliferation / cytotoxicity (Incucyte) with and without light irradiation. It is filed as cell-based, murine. As to conditions: B16F10, 10 uM. On the procedure: Murine melanoma B16F10 cells were seeded at 3000-4000 cells per well in 96 well black view plate Perkin Elmer plates in DMEM media without phenol, as phenol red may interfere in the absorption of light. After overnight incubation, media was aspirated from the wells and varying concentrations of photosensitizers were added to the cells. Cells were incubated for 4 hours in dark at 37° C., after 4 hours cells were washed twice with 1×PBS and 300 μL of media was added to the wells before placing the plates in Incucyte ZOOM Live cell imaging machine to capture the images after every hour. Percentage confluence was measured over a time period. Similar approach was taken for keratinocyte cell lines NTERT-1 except the starting confluence was 75-85%. This is to mimic the physiological situation in the body where keratinocytes are present in much larger numbers than melanocytes. […]
Mouse melanoma cells B16-F10, human skin keratinocytes N-TERT-1 and primary human melanocytes MeL at cell densities of 4000 cells/well, 6000 cells/well and 3500 cells/well respectively were seeded to achieve similar starting confluence in 96-black Perkin-Elmer well plate in DMEM medium without phenol red (for B16F10 and MeL) and KSFM media (for N/TERT-1 cells) and kept for overnight at 37° C. […] Percentage confluence was measured over a time period. […]

The structures appear in SMILES notation.

Take `CN(C)c1ccc2nc3ccc(=[N+](C)C)cc-3sc2c1` [MB, methylene blue]: the cytotoxicity in dark entry is listed as “no cytotoxicity”.
